Measured values as given in publication PMC5249144, “T Cell Subset and Stimulation Strength-Dependent Modulation of T Cell Activation by Kv1.3 Blockers” (PLoS ONE, 2017).
Where two headings read alike, the source gives them in different places.

Columns and labels:
[1] = tested on: human CD4 T cell subsets; assay type: cell-based
Source text: (§1) Human PBMC were purified from donor blood by Ficoll-Paque (GE Healthcare) density centrifugation. CD4 or CD8 T cells were purified from human PBMC by negative selection using human CD4 or CD8 T cell isolation kit (Miltenyi Biotec) respectively. Naïve or memory CD4 T cells were isolated from CD4 T cells by negative selection using human naïve or memory CD4 T cell isolation kit (Miltenyi Biotec) respectively. Central and effector memory CD4 T cells were separated from memory CD4 T cells using biotinylated anti-CCR7 (BD Biosciences) and streptavidin coated magnetic beads (Miltenyie Biotec). Cells after treatment with antibodies and magnetic beads were purified with autoMACS (Miltenyi Biotec).
(§2) T cells were cultured in 96-well plates (Thermo Scientific) with 200μl medium/well. […]
(§3) Proliferation of T cells was measured by overnight pulsing with 1μCi/well of ^3H-thymidine (Perkin Elmer). […] Filter plates were soaked with scintillant (Perkin Elmer) and radioactivity was counted using a Topcount (Packard).
In order to further understand the activity profile of Kv1.3 blockers on T cells, we compared the effects of Kv1.3 blockers on primary naïve, central memory and effector memory CD4 T cells. […] Purified T cells were activated with anti-CD3 in the presence of mitomycin C treated PBMC and the effects of Kv1.3 blockers on T cell proliferation were monitored and compared to cyclosporine A and BTP2.

[2] = tested on: thapsigargin stimulated human blood; test: Thapsigargin stimulated whole blood IL-2 production; assay type: cell-based; conditions: whole blood diluted with equal volume IMDM, 20 hours
Experimental: Heparinized human blood was diluted with an equal volume of IMDM medium (Life Technologies) supplemented with 2% normal human A/B serum and plated at 200μl/well in 96-well plates for thapsigargin (Alomone) stimulation. CD4 T cells were plated at 5 x 10^5 cells/well in 96-well plates with 200μl medium/well. Blood or T cell samples were pre-treated with blockers or inhibitors for 30 minutes prior to stimulation with thapsigargin at 10μM or other concentrations as indicated for 20 hours. Cytokines in culture supernatants were measured as described in cytokine detection section.
(§4) Cytokines in supernatants collected from blood or T cell cultures were measured with ELISA or electrochemiluminescent assays. IL-2 was measured by ELISA using the human IL-2 Quantikine Kit (R&D Systems). Other cytokines were detected using multiplex human cytokine electro-chemiluminescent kit (Meso Scale Discovery).

[3] = tested on: human CD4 T cells; test: Calcium flux in CD4 T cells, anti-CD3/CD28; assay type: cell-based; conditions: BTP2 1μM
Experimental: (§5) T cells were loaded with 3μM each of Fluo4 and Fura red (Molecular Probes, Invitrogen) for 45 minutes in the dark at 37°C in cell loading medium (DMEM medium with 10mM HEPES and 10% fetal calf serum) in the presence of 0.01% pluronic acid (Molecular Probes). Dye-loaded cells were rinsed twice with loading medium, incubated with 10μg/ml mouse anti-CD3 (BD Biosciences) and 2.5μg/ml mouse anti-CD28 (BD Biosciences) for 30 minutes at room temperature, and then rinsed again with loading medium to be ready for calcium flux studies. Cells were acquired with FACS LSRII and cell activation was initiated by addition of goat anti-mouse antibody (Jackson ImmunoResearch) to final 10μg/ml. CD4 T cells were also stimulated with 1μM thapsigargin. Kinetics of calcium flux in activated cells were monitored by reading the calcium dependent Fluo4 emission signals at 530nm compared to non-specific Fura red signals at 685nm. Calcium flux was calculated as ratio of Fluo4 to Fura red emission signals.

[4] = tested on: human CD4 T cells; test: Calcium flux in CD4 T cells, thapsigargin; assay type: cell-based; conditions: BTP2 1μM, thapsigargin 1μM, monitored for 10 minutes
Experimental: as §5

[5] = tested on: Kv1.3; conditions: ref [5], [20]–[23]; cited from earlier work
[6] = tested on: PBMC from allergic rhinitis patients; assay type: cell-based, human
Experimental: T cells were cultured in 96-well plates (Thermo Scientific) with 200μl medium/well. Culture medium was RPMI-1640 medium supplemented with 2% human A/B serum (Valley Biomedical Prod & Srv Inc.), 2 mM glutamine, 1mM sodium pyruvate, 10mM HEPES, 1mM MEM nonessential amino acid solution, and 100 U/ml each of penicillin G and streptomycin (all culture reagents from Life Technologies except for human serum). T cells were pre-treated with Kv1.3 blockers and other inhibitors for 30 minutes before stimulation. All assays were conducted with samples in duplicates or triplicates.
For T cell pan-activation with beads coated with anti-CD3 and anti-CD28 (eBioscience), T cells at 2 x 10^5 cells/well in 96-well flat-bottom plates were stimulated overnight with anti-CD3 and anti-CD28 coated beads (Miltenyi Biotec) at 2:1 bead/cell ratio or as indicated. For T cell pan-activation with anti-CD3, T cells at 5 x 10^4 cells/well in 96-well U-bottom plates were stimulated for 2 days with 1ng/ml of anti-CD3 in the presence of mitomycin C treated autologous PBMC at 1:1 T cell/PBMC ratio. […]
as §3

[7] = tested on: human CD4 and CD8 T cells; assay type: cell-based
Source text: as §1, §2, §3, §4

Row | Molecule | inhibition of proliferation of T cell subsets, in words ([1]; maximal efficacious concentrations, naïve, Tcm, Tem CD4 T cells, anti-CD3/PBMC) | inhibition of IL-2 release from thapsigargin stimulated whole blood, in words [2] | reduction of calcium flux, in words ([3]; anti-CD3/CD28, monitored for 10 minutes) | calcium flux by T cell population, in words ([3]; ShK 1nM, activated CD4 T cells, Fig 4C (anti-CD3/CD28 or thapsigargin)) | reduction of calcium flux, in words [4] | Kv1.3 block, in words [5] | inhibition of proliferation of T cell subsets, in words [1] | ragweed proliferative response, in words [6] | block of T cell activation [7] [%] | inhibition of T cell activation, in words [7]
1 | Cc1nnsc1C(=O)Nc1ccc(-n2nc(C(F)(F)F)cc2C(F)(F)F)cc1 [BTP2] | complete inhibition | fully efficacious | significantly reduced the calcium flux levels | reduced calcium flux in all activated T cells | significantly reduced the calcium flux levels |  |  |  |  | 
2 | CC[C@H](C)[C@@H]1NC(=O)[C@@H]2CSSC[C@@H]3NC(=O)[C@H](CCCCN)NC(=O)CNC(=O)[C@H](CC(N)=O)NC(=O)[C@H](CCSC)NC(=O)[C@H](CSSC[C@H](NC(=O)[C@H](CCCCN)NC(=O)[C@@H](NC(=O)[C@H](CC(=O)O)NC(=O)[C@@H](NC(=O)[C@@H]4CCCN4C(=O)[C@@H](NC(=O)CN)C(C)C)[C@@H](C)O)C(C)C)C(=O)N[C@@H](CCCNC(=N)N)C(=O)NCC(=O)N[C@@H](CO)C(=O)N4CCC[C@H]4C(=O)N[C@@H](CCC(N)=O)C(=O)N2)NC(=O)[C@H](CCCCN)NC(=O)CNC(=O)[C@H](Cc2ccccc2)NC(=O)[C@H](CCCNC(=N)N)NC(=O)[C@H](CCSC)NC(=O)CNC(=O)[C@H](C)NC(=O)[C@H](CC(=O)O)NC(=O)[C@H](CCCCN)NC(=O)[C@H](CSSC[C@@H](C(=O)N[C@H](C(=O)N2CCC[C@H]2C(=O)N[C@@H](CCCCN)C(=O)O)[C@@H](C)O)NC(=O)[C@H](Cc2c[nH]cn2)NC3=O)NC(=O)[C@@H]2CCCN2C(=O)[C@H](CCC(N)=O)NC1=O [OdK2] |  |  |  |  |  | potent blockers of Kv1.3 |  |  |  | 
3 | cyclosporine A |  | fully efficacious |  |  |  |  | complete inhibition | reduced the proliferative response to its basal level | ~100 | fully inhibits T cell activation in all stimulation conditions
